# In patent publication US10987345B2, “Method for assessing the efficacy of IMiDs and composition or combination for use in treating IMiD sensitive diseases” (Klinikum Rechts Der Isar Der Technischen Universitat Munchen, priority 2014, dated 2021):
# Key:
# [1] = test system: CD147; assay: Pulse chase analysis of CD147 protein maturation in MM1S cells; assay type: cell-based, human; details: 35S-Met/Cys pulse-chase
# Protocol: In a complementary approach using pulse-chase analysis, CD147 protein maturation from the immature core-glycosylated to the mature high-glycosylated form necessary for membrane localization was investigated. […] Importantly, treatment with MLN4924, an inhibitor of Cullin-RING ubiquitin ligases, had no effect on CD147 stability or processing, thereby further underscoring a ubiquitin-independent effect of CRBN on CD147 (FIG. 13h).
# Labelling of MM1S cells with ^35S-Met/Cys was essentially performed as described previously. […] Newly translated proteins were metabolically labeled for 45 Minutes with methionine- and cysteine-free DMEM containing 0.2 mCi/ml [35S]-Met/Cys. Cells were then washed three times with PBS (37° C.) and incubated with DMEM for up to 24 hours.
# [2] = test system: VEGF; assay: VEGF secretion in MM cell culture supernatants (ELISA); assay type: cell-based, human; details: 10 μM, 96 h
# Excerpt: (§1) Supernatants were collected and snap-frozen for subsequent analysis. VEGF and MMP7 concentrations were, determined in an enzyme linked immunosorbent assay (ELISA) using kits RAB0507, and RAB0369 (VEGF and MMP7 respectively, both Sigma) according to the manufacturer's instructions. Results were normalized to protein concentration of corresponding cell lysates.
# [3] = test system: CD147; assay: Flow cytometry of CD147 cell surface expression in MM1S cells; assay type: cell-based, human; details: lenalidomide 10 μM
# Protocol: The secondary antibody was […] anti mouse IgG. After washing, stained cells were analysed for CD147 expression using a FACSCalibur (Becton Dickinson).
# [4] = test system: MM cell lines; assay: Cell proliferation / survival of MM cells (trypan blue exclusion); assay type: cell-based, human; details: sensitive cells (MM1S), 10 μM lenalidomide, 72 hours
# Protocol: MM cells were subjected to treatment with lenalidomide/DMSO for the indicated times or infected with lentiviral-shRNA. On days indicated, proliferation was assessed using the trypan blue exclusion method. Results are presented as ratios to DMSO, wildtype or sh_scramble controls.
# [5] = test system: MMP7; assay: MMP7 secretion in MM cell culture supernatants (ELISA); assay type: cell-based, human; details: 10 μM, 96 h
# Excerpt: as §1
# [6] = test system: CD147; assay: CD147 surface expression on erythropoiesis in MDS patient bone marrow (flow cytometry); assay type: in vivo, human; details: del(5q) MDS patients on lenalidomide treatment vs untreated del(5q) and non-del(5q) MDS
# Excerpt: After informed consent, bone marrow samples from patients with MDS were collected in heparin, lysed with Versalyse® (Beckman Coulter, Krefeld, Germany), stained with anti-human monoclonal fluorochrome-conjugated antibodies and analyzed by flow-cytometry on a Cytomics FC 500 analyzer (Beckman Coulter). The following antibodies were used: Beckman Coulter: CD45-ECD (clone J33), CD33-PE (clone D3HL60.251), CD14-PECy5 (clone RM052), CD7-PE (clone 8H8.1), CD3-PECy5 (clone UCHT1), CD19-PECy7 (clone J4,119), CD7-PE, GlyA-PE (clone 11E4B-7-6), CD34-PECy7 (clone 581) and CD147-FITC (clone HIM6) from BD Biosciences. Using a CD45 vs, SSC gating strategy monocytes, lymphocytes, granulocytes, progenitor cells and CD45low/-GlyA+ cells were identified, Gates were then placed on CD19+ B-cells, CD3+ and CD3-CD7+ NK cells within the lymphocyte gate; on CD33+ granulocytes and CD14+ monocytes; on CD45low/CD33+ CD34+ progenitor cells and on CD45low/-GlyA+ erythropoiesis. CD147 expression of CD45low/-GlyA+ erythropoiesis was then determined by histogram gating. Data are represented as median fluorescence intensity of CD147 relative to isotype-matched control. Data were analyzed using Kaluza® Flow Analysis Software (Beckman Coulter).
# [7] = test system: MM cell lines; assay: Intra- and extracellular lactate measurement in MM cells; assay type: cell-based, human
# Protocol: For analysis of intra- and extracellular lactate, lenalidomide or DMSO treated cells were centrifuged down. For extracellular lactate, the supernatant was collected and frozen; normal cell culture medium was used as control for normalization. For measurement of intracellular lactate, cell pellets were lysed in lysis buffer. Lactate content in cell lysates as well as in the supernatants were analysed with the cobas 8000 (Roche).
# [8] = test system: del(5q) MDS bone marrow derived CD34+ cells; assay: Apoptosis (Annexin V/PI) in in vitro propagated del(5q) MDS CD34+ cells; assay type: cell-based, human; details: 10 μM lenalidomide, erythroid differentiation, non-erythroid vs early erythroid (CD36+) cells
# Protocol: Mononuclear cells from bone marrow aspirates were enriched for CD34^+ cells by magnetic bead selection (MACS, MiltenylBiotech) according to the manufacturer's instructions. CD34^+ cells were differentiated along the erythroid lineage essentially as known in the art. […] On day 7, 2 IU/ml erythropoietin (EPO Janssen-CILAG GmbH) was added to the cultures to stimulate erythropoiesis. Half medium changes were performed every third day and cells were harvested on day 14.
# Cells were collected and washed with Annexin/PI buffer containing […], 1.62 mM CaCl2. Cell pellets were stained with CD34-FITC (BD Pharmingen, clone 581/CD34), CD147-PE (BD Pharmingen, done HIM6), CD33-PC5.5 (Beckmann Coulter, clone D3HL60.251), CD45 PE Cy7 (eBioscience, clone H130), CD36-APC Cy7 (BioLegend, clone 336213), primary CD235α-biotin (eBioscience, clone HIR2) and secondary streptavidin eFluor®450 (eBioscience) antibodies according to manufacturer's instructions. The combination of APC Annexin V (BD Pharmingen) and PI was added for the determination of apoptosis and necrosis. Single stained samples were used for compensation.
# Flow cytometry was performed on a CyAn ADP LxP8 (Coulter-Cytomation) and data were analyzed using FlowJo software (TreeStar Inc.).
# [9] = test system: CD147/MCT1 complex; assay: Immunoblot analysis of CD147 and MCT1 protein levels in myeloma cells; assay type: cell-based, human; details: for Destabilization of CD147/MCT1: 100 nM pomalidomide, 100 μM thalidomide
# Protocol: HEK 293T and HeLa cells were grown in Dulbecco's modified Eagle's Medium (DMEM), each media containing 10% fetal bovine serum. (FBS). The human multiple myeloma cell lines MM1.S, U266, KMS-12-BM, RPMI 8226 and JJN3 were cultured in RPMI-1640 with 10% FBS. […] Sf9 insect cells (Life technologies) were cultured in Sf-900 II serum-free medium (SFM, Life technologies) supplemented with 10% heat-inactivated FBS and 10 μg/ml gentamycin. High Five cells (Invitrogen) were cultured in Express Five SFM supplemented with 10 mM L-glutamine and 10 μg/ml gentamycin. All cells tested mycoplasma negative by a PCR detection method.
# Cell samples were lysed in lysis buffer (NaCl 150 mM, Tris-HCl 50 mM, MgCl2 5 mM, EDTA 1 mM, INP-40 0.1%, Glycerol 5% and inhibitors) for whole cell lysates, immunoprecipitations or pulldown experiments. Details of extract preparation, immunoprecipitation, and immunoblotting, were previously described. Briefly, the cellular lysates were centrifuged 15 min at 14 000 rpm at 4° C. to separate from cellular debris. Protein concentration in the supernatants was measured before Laemmli buffer was added. The lysates were separated by SDS-PAGE and blotted onto PVDF (polyvinylidene difluoride) membranes. After blotting, PVDF membranes were stained With. Ponceau solution to evaluate protein loading. After washing and blocking unspecific bindings in 5% milk; the membranes were incubated with primary antibodies. After addition of horseradish peroxidase coupled secondary antibodies, western blot membranes were developed using the ECL (enhanced chemoluminescence) method (SuperSignal West reagents from Thermo Scientific). For immunoprecipitations (IPs), cell lysates were incubated with Flag-M2 agarose beads (Sigma) for Flag-IPs, HA-7 agarose beads (Sigma) for HA-IPs, or protein-A sepharose beads (GE Healthcare) together with primary rabbit antibodies for binding of endogenous proteins (e.g. for CRBN-IP). For the experiments using a protein cross linker, DSS (Pierce) was added to the cells to a final concentration of 1 mM for 45 minutes at RT. The Cross linker was quenched by addition of Tris-HCl, pH 7.5 20 mM and cell lysis was performed as described, with the only exception of HEPES buffer 50 mM, pH 7.5 instead of Tris-HCl buffer. After washing the beads four times in lysis buffer, Laemmli buffer was added and proteins were analyzed by SDS-electrophoresis.
# [10] = test system: IKZF1/3; assay: Immunoblot analysis of IKZF1/IKZF3 in myeloma cells; assay type: cell-based, human; details: MM1S cells; 10 μM lenalidomide, 100 nM pomalidomide, 100 μM thalidomide
# Protocol: HEK 293T and HeLa cells were grown in Dulbecco's modified Eagle's Medium (DMEM), each media containing 10% fetal bovine serum. […] The human multiple myeloma cell lines MM1.S, U266, KMS-12-BM, RPMI 8226 and JJN3 were cultured in RPMI-1640 with 10% FBS. […] Sf9 insect cells (Life technologies) were cultured in Sf-900 II serum-free medium (SFM, Life technologies) supplemented with 10% heat-inactivated FBS and 10 μg/ml gentamycin. High Five cells (Invitrogen) were cultured in Express Five SFM supplemented with 10 mM L-glutamine and 10 μg/ml gentamycin. All cells tested mycoplasma negative by a PCR detection method.
# Cell samples were lysed in lysis buffer (NaCl 150 mM, Tris-HCl 50 mM, MgCl2 5 mM, EDTA 1 mM, INP-40 0.1%, Glycerol 5% and inhibitors) for whole cell lysates, immunoprecipitations or pulldown experiments. […] Briefly, the cellular lysates were centrifuged 15 min at 14 000 rpm at 4° C. to separate from cellular debris. Protein concentration in the supernatants was measured before Laemmli buffer was added. The lysates were separated by SDS-PAGE and blotted onto PVDF (polyvinylidene difluoride) membranes. After blotting, PVDF membranes were stained With. […] After washing the beads four times in lysis buffer, Laemmli buffer was added and proteins were analyzed by SDS-electrophoresis.
# [11] = test system: Zebrafish larvae; assay: Zebrafish teratotoxicity phenotype at 3 dpf; assay type: in vivo; details: for Phenotype after CD147 knock-down by morpholino: 0.1 mM or 0.25 mM morpholino injected, 3 dpf
# Protocol: Briefly, Zebrafish larvae were injected with different concentrations of splice-Morpholinos targeting all 3 predicted CD147 isoforms in zebrafish or treated with 400 μM Thalidomide on the day of fertilization. On day and 3 after fertilization, the phenotypes of the larvae were analysed.
# The wildtype strain AB was used in all experiments. All embryos were kept at 28.5° C. in E3 media (5 mM NaCl, 0.17 mM KCl, 0.33 mM CaCl2, 0.33 mM MgSO4) supplemented with 10^−5% methylene blue. All experiments were performed in accordance with animal protection standards of the Ludwig-Maximilians University Munich and were approved by the government of Upper Bavaria (Regierung von Oberbayem, Munich, Germany).
# Knock-down of CD147 in zebrafish was done by microinjection of 2-4 pl of 0.1 mM or 0.25 mM antisense morpholino oligo (Gene Tools, LLC) targeting either a splice junction of CD147 (CD147 splice MO; exonic sequence in upper case: 5′-aagaggtgaagaacatacAAGTGTT-3′ (SEQ ID NO: 18) or the ATG start codon (CD147 ATG MO; 5′-[…]-3′ (SEQ. ID NO: 39) at the 1 cell stage. Injected eggs and controls were cultured at 28° C. in E3 buffer. For each experiment, 50 eggs were injected.
# For thalidomide treatment, fertilized embryos were randomly split into two groups at 3 hours post fertilization (hpf): One group was transferred into E3 containing 0.1% DMSO, the other group into E3 with 400 μM thalidomide (Sigma-Aldrich) and kept at 28.5° C. for 3 days.
# Larvae were analyzed for Phenotypes at 3 days post fertilization (dpf). For each experiment, 10 embryos were treated. CD147 splice MO-injected larvae were compared to control larvae and thalidomide treated larvae were compared to DMSO controls. Larvae were anesthetized with Tricaine (0.016% w/v) and mounted in 3% methylcellulose on coverslips. DIC images were taken with an Axioplan2 compound microscope (Zeiss).
# [12] = test system: CD147; assay: Semiquantitative RT-PCR verification of CD147 knockdown in zebrafish; assay type: in vivo; details: CD147 splice morpholino at indicated concentrations
# Protocol: For verification of efficient CD147 knock-down in zebrafish embryos, total RNA of larvae injected with CD147 splice morpholino or control was extracted using the QIAshredder and RNeasy Kit (both Qiagen); cDNA synthesis was performed as described above. PCR reactions were performed on the peqSTAR2x gradient thermocycler (Peqlab) following standard procedures and using the following primers: […]
# One fifth of the PCR reaction was loaded onto an agarose gel and subjected to gel electrophoresis.
# [13] = lenalidomide-sensitive MM cell lines
compound,measurement,setting,value
NS(=O)(=O)OC[C@@H]1C[C@@H](n2ccc3c(N[C@H]4CCc5ccccc54)ncnc32)C[C@@H]1O [MLN4924],CD147 stability or processing,[1],no effect
Nc1cccc2c1CN(C1CCC(=O)NC1=O)C2=O (centres unmarked) [lenalidomide],CD147 de novo synthesis,[1],no effect
same,CD147 glycosylation as readout for maturation and membrane localization,[1],substantially impaired
same,VEGF secretion,[2]; [13],significantly reduced
same,VEGF secretion,[2]; resistant MM cell lines,only minor effects
same,CD147 cell surface expression,[3],decreased
same,Anti-myeloma effect of lenalidomide under induced overexpression of CD147 and MCT1,[4],attenuated
same,MMP7 secretion,[5]; [13],significantly reduced
same,MMP7 secretion,[5]; resistant MM cell lines,only minor effects
same,CD147 surface expression in the erythropoietic compartment,[6],attenuated to the level of non-del(5q) MDS samples
same,Intracellular lactate levels,[7]; [13],significantly elevated
same,Intracellular lactate levels,[7]; resistant MM cell lines,only minor effects
same,Lenalidomide-induced apoptosis by cell compartment,[8],largely restricted to early erythroid cells
same,"Level of immature, core-glycosylated form of CD147","[9]; MM1S cells, 10 μM lenalidomide, time course",progressive accumulation
same,Dose dependence of CD147 and MCT1 destabilization,"[9]; MM1S cells, different concentrations, 72 hours",destabilizes CD147 and MCT1 in a dose dependent manner
same,Destabilization of CD147/MCT1,"[9]; MM1S cells, 10 μM lenalidomide",destabilize CD147/MCT1
same,CD147 and MCT1 expression upon lenalidomide exposure,"[9]; lenalidomide-resistant MM lines (KMS12BM, RPMI 8226)",remained unchanged
same,CD147 and MCT1 stability upon lenalidomide exposure,"[9]; lenalidomide-sensitive MM lines (MM1S, U266)",destabilization of CD147 and MCT1
Nc1cccc2c1C(=O)N(C1CCC(=O)NC1=O)C2=O (centres unmarked) [pomalidomide],IKZF1/3 degradation,[10],restricted to lenalidomide and pomalidomide
same,Destabilization of CD147/MCT1,"[9]; MM1S cells, 10 μM lenalidomide",destabilize CD147/MCT1
"O=C1CCC(N2C(=O)c3ccccc3C2=O)C(=O)N1 (stereo not drawn) [thalidomide, α-N-phthalimido-glutarimide]",IKZF1/3 degradation,[10],restricted to lenalidomide and pomalidomide
same,Teratotoxic phenotype,"[11]; 400 μM thalidomide, 3 days post fertilization","teratotoxic phenotype, including reduced size of head, fins, and eyes"
same,Destabilization of CD147/MCT1,"[9]; MM1S cells, 10 μM lenalidomide",destabilize CD147/MCT1
"ATG MO: antisense morpholino oligo targeting the ATG start codon of CD147, 5′-GCGCCAAAGAGCTTCTTTTCCATGC-3′ (SEQ. ID NO: 39) (all phosphorodiamidate morpholino (PMO))",Phenotype after CD147 knock-down by morpholino,[11],identical phenotypes as thalidomide treatment
"splice MO: antisense morpholino oligo targeting a splice junction of CD147, 5′-aagaggtgaagaacatacAAGTGTT-3′ (SEQ ID NO: 18) (antisense AAGAGGTGAAGAACATACAAGTGTT; all phosphorodiamidate morpholino (PMO))",Phenotype after CD147 knock-down by morpholino,[11],identical phenotypes as thalidomide treatment
same,CD147 knockdown (RT-PCR),[12],efficient and dose dependent CD147 knockdown
